The values below come from the kinase profiling compilation of Christmann-Franck et al. (2016).

For one experiment, the target named is MYO3B (human) (UniProt Q8WXR4). The experiment can be described thus: radiometric filter-binding kinase assay, Kinase HotSpot. To be noted: compound 0.5 µM; ATP 10 µM.
In another experiment the target is PRKACG (human) (UniProt P22612). The experiment is described as above. To be noted: compound 0.5 µM; ATP 10 µM.
Chain of PRKACG (human) (P22612 whole entry, looked up): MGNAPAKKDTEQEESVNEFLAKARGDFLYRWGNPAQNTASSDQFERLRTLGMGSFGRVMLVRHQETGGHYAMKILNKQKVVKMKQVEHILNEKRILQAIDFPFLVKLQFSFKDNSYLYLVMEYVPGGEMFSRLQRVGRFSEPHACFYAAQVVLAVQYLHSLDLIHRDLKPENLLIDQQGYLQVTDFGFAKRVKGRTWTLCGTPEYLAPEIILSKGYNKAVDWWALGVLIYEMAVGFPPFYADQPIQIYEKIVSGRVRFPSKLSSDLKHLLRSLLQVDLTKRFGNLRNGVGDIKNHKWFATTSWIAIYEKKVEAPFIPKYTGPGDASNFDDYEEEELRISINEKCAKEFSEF

Chain of MYO3B (human) (Q8WXR4 whole entry, looked up): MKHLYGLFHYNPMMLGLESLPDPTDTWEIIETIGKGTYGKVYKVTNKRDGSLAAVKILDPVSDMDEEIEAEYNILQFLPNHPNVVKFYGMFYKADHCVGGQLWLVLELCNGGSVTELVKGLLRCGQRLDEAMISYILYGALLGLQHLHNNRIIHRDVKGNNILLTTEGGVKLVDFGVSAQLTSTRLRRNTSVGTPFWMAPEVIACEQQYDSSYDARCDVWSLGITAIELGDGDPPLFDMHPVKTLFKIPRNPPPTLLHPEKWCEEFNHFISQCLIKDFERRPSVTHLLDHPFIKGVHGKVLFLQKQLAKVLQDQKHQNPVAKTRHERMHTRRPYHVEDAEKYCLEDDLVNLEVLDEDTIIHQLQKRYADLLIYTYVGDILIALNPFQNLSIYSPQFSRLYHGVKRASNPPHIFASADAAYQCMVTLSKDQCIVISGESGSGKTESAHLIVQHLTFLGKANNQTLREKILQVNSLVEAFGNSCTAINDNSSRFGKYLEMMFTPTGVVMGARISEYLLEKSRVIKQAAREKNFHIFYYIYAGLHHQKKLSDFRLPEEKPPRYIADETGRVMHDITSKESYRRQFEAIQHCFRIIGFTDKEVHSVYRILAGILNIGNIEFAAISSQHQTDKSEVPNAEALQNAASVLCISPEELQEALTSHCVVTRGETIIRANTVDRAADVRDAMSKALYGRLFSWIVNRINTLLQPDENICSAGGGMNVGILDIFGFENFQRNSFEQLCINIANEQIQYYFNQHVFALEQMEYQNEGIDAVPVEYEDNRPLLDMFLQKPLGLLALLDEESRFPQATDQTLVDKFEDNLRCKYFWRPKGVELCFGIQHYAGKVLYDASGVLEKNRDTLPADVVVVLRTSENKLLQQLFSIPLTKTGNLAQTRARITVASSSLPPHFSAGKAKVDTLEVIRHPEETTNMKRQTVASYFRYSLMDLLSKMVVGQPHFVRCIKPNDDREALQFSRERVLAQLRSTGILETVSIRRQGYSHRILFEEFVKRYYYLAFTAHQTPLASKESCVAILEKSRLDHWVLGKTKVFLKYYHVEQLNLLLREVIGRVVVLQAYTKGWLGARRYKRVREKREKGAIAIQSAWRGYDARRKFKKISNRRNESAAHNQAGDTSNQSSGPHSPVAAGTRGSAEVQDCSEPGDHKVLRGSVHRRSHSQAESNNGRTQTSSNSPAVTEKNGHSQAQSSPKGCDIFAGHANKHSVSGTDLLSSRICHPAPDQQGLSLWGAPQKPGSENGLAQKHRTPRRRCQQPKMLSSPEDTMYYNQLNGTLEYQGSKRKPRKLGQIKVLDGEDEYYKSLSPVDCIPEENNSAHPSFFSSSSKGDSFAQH

On to `N#C/C(=C\c1ccc(O)c(O)c1)C(=O)NCc1ccccc1`, for which the residual activity (commonly the signal under treatment as a percentage of the control signal) worked out at 88.3% at MYO3B (human) and 90.7% at PRKACG (human).

For `CS(=O)(=O)CCNCc1ccc(-c2ccc3ncnc(Nc4ccc(OCc5cccc(F)c5)c(Cl)c4)c3c2)o1`, the residual activity on MYO3B (human) is 96.1%; at PRKACG (human) it was 110%.

As to `N#Cc1c[nH]c2c[nH]/c(=N\Cc3cccnc3)cc2/c1=N\c1ccc(F)c(Cl)c1`, the results for the residual activity on MYO3B (human) and on PRKACG (human) were 87.9% and 115%, respectively.

In the case of `Fc1ccc(-c2nc3n(c2-c2ccncc2)CCS3)cc1`, the residual activity at MYO3B (human) was 102%; on PRKACG (human) it was 116%.

On to `COc1cc2ncnc(Nc3ccc(Oc4ccccc4)cc3)c2cc1OC`, for which the residual activity on MYO3B (human) came out at 103%; at PRKACG (human), 137%.

For the compound `CN(C)S(=O)(=O)c1ccc2c(c1)/C(=C/c1cc3c([nH]1)CCCC3)C(=O)N2`, the residual activity worked out at 98.9% at MYO3B (human) and 114% at PRKACG (human).

As to `O=C1Nc2ccc(Br)cc2/C1=C\c1cc2c([nH]1)CCCC2`, the residual activity at MYO3B (human) turned out to be 55.1%; at PRKACG (human) it was 98.1%.

Turning to `CO[C@@H]1[C@H](N(C)C(=O)c2ccccc2)C[C@H]2O[C@]1(C)n1c3ccccc3c3c4c(c5c6ccccc6n2c5c31)C(=O)NC4`, the residual activity on MYO3B (human) came to 53.7%; on PRKACG (human) it was 58.1%.

As to `Cc1cncc2cccc(S(=O)(=O)N3CCCN(C(=O)CN)C[C@H]3C)c12`, the figures for the residual activity at MYO3B (human) and at PRKACG (human) were 104% and 112%, respectively.

With `O=C1c2ccccc2-c2nc3nnnn3nc21`, the residual activity at MYO3B (human) came out at 88.4%; at PRKACG (human), 88.5%.

On to `Cc1nc(-c2ccccc2)c(-c2ccncc2)o1`, for which the residual activity at MYO3B (human) and at PRKACG (human) was 108% in each case.

Turning to `Cc1cccc(-c2nc(C(C)(C)C)[nH]c2-c2ccc3c(c2)OCO3)n1`, the residual activity on MYO3B (human) amounted to 79.2%; on PRKACG (human), 119%.

With `COc1ccc2c(c1)/C(=C/c1cnc[nH]1)C(O)=N2`, the residual activity at MYO3B (human) came out at 88%; on PRKACG (human), 110%.

As to `COc1ccc(S(=O)(=O)N(CCO)c2ccccc2CN(C)C/C=C/c2ccc(Cl)cc2)cc1`, the values for the residual activity at MYO3B (human) and at PRKACG (human) were 90.2% and 104%, respectively.

For the compound `O=C1C(Cl)=C(N2C(=O)CCC2=O)C(=O)c2ccccc21`, the residual activity at MYO3B (human) came out at 112%; at PRKACG (human), 95.1%.

In the case of `C[C@@H]1CCN(C(=O)CC#N)C[C@@H]1N(C)c1ncnc2[nH]ccc12`, the results for the residual activity at MYO3B (human) and on PRKACG (human) were 89.3% and 111%, respectively.

For `COc1cc(Nc2c(C#N)cnc3cc(OCCCN4CCN(C)CC4)c(OC)cc23)c(Cl)cc1Cl`, the residual activity amounted to 40.3% on MYO3B (human) and 99.2% at PRKACG (human).

For `c1ccc2c(-c3ccncc3)c[nH]c2c1`, the figures for the residual activity on MYO3B (human) and at PRKACG (human) were 96.4% and 107%, respectively.
